The subject of this assay is VEGF. In words: Hypoxia-inducible endogenous VEGF expression ELISA in HeLa cells. The assay is classed as cell-based. As to conditions: VEGF protein by ELISA. The method, boiled down: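 HeLa cells held 24–48 h in hypoxia (1% O2) with a concentration series of compound; VEGF secreted into media quantified by ELISA against a standard curve. Parallel Cell Titer Glo viability under identical conditions gives CC50; EC50 from percent-inhibition curves.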

The mark [1] stands for this setting: Homo sapiens, HeLa, compounds 191-239, hypoxic conditions, read-out: ELISA Activity EC50.
[2] abbreviates: Homo sapiens, HeLa, compounds 1-155, hypoxic conditions (1% O2), read-out: ELISA Activity.
Where [3] appears, read: Homo sapiens, HeLa, purchased compounds 156-188, hypoxic conditions, read-out: ELISA Activity.
[4] abbreviates: Homo sapiens, HeLa, purchased compounds 156-188, hypoxic conditions, read-out: ELISA EC50.

pEC50: −log10 of the molar value. Structures can show the parent of a compound that is named as a salt. Where two headings read alike, the source gives them in different places. Bounds are passed on as bounds.

The results in this text go back to US9271960B2, “Tetrahydrocarbazoles as active agents for inhibiting VEGF production by translational control” (PTC Therapeutics, Inc., priority 2004, dated 2016).

In the case of `COc1ccc(C2CCCCc3c2[nH]c2ccc(Cl)cc32)cc1` (centres unmarked) [Compound 229], the pEC50 under setting [1] is 7.40 to 8.00.
Take `CN(C)c1ccc(NC2CCCc3c2[nH]c2ccc(Br)cc32)cc1` (centres unmarked) [Compound 61, N-(6-Bromo-2,3,4,9-tetrahydro-1H-carbazol-1-yl)-N′,N′-dimethyl-benzene-1,4-diamine]: the pEC50 under setting [2] is 6.00 to 6.70.
For `OC(COc1ccc(C2CCCCc3c2[nH]c2ccc(Br)cc32)cc1)CN1CCOCC1` (centres unmarked) [Compound 225], the pEC50 under setting [1] is 6.70 to 7.40.
`Brc1cccc2c3c([nH]c12)C(n1cccc1)CCC3` (centres unmarked) [Compound 118, 8-Bromo-1-pyrrol-1-yl-2,3,4,9-tetrahydro-1H-carbazole]: under setting [2], the pEC50 is under 6.00.
Same read-out and setting: next, `O=C(NC1CCCc2c1[nH]c1ccc(Br)cc21)c1cc2ccccc2o1` (centres unmarked) [Compound 124, Benzofuran-2-carboxylic acid (6-bromo-2,3,4,9-tetrahydro-1H-carbazol-1-yl)-amide]: 6.00 to 6.70.
On to `O=C(NC1CCCc2c1[nH]c1ccc(Br)cc21)c1cccc(Cl)c1` (centres unmarked) [Compound 22, N-(6-Bromo-2,3,4,9-tetrahydro-1H-carbazol-1-yl)-3-chloro-benzamide], for which the pEC50 under setting [2] was over 8.00.
Still for that read-out and setting: next, `O=C1CCCc2c1[nH]c1ccc(Br)cc21` [Compound 50, 6-Bromo-2,3,4,9-tetrahydro-carbazol-1-one]: 6.70 to 7.40; `O=C(NC1CCCc2c1[nH]c1ccc(Br)cc21)c1ccc(Cl)cc1` (centres unmarked) [Compound 134, N-(6-Bromo-2,3,4,9-tetrahydro-1H-carbazol-1-yl)-4-chloro-benzamide]: 7.40 to 8.00.
On to `Brc1ccc2[nH]c3c(c2c1)CCCC3c1ccccc1` (centres unmarked) [Compound 15, 6-Bromo-1-phenyl-2,3,4,9-tetrahydro-1H-carbazole], for which the pEC50 under setting [2] is over 8.00.
Consider `Oc1ccc(C2CCCCc3c2[nH]c2ccc(Cl)cc32)cc1` (centres unmarked) [Compound 230], for which the pEC50 under setting [1] was over 8.00.
Consider `OC(COc1ccc(C2CCCc3c2[nH]c2ccc(Cl)cc32)cc1)Cn1ccnn1` (centres unmarked) [Compound 221], for which, under setting [1], the pEC50 was 7.40 to 8.00.
Regarding `O=C(NC1CCCc2c1[nH]c1ccc(Br)cc21)c1cccnc1` (centres unmarked) [Compound 58, N-(6-Bromo-2,3,4,9-tetrahydro-1H-carbazol-1-yl)-nicotinamide], the pEC50 under setting [2] was 6.70 to 7.40.
For `Cc1ccc2[nH]c3c(c2c1)CCCC3NCc1ccc(Cl)cc1` (centres unmarked) [Compound 160, (4-Chloro-benzyl)-(6-methyl-2,3,4,9-tetrahydro-1H-carbazol-1-yl)-amine], the pEC50 was 6.00 to 6.70 under setting [3] and 6.38 under setting [4].
With `OC(COc1ccc(C2CCCc3c2[nH]c2ccc(Cl)cc32)cc1)Cn1cncn1` (centres unmarked) [Compound 222], the pEC50 under setting [1] is 6.70 to 7.40.
`COc1ccc(C(=O)NC2CCCc3c2[nH]c2ccc(Cl)cc32)cc1` (centres unmarked) [Compound 145, N-(6-Chloro-2,3,4,9-tetrahydro-1H-carbazol-1-yl)-4-methoxy-benzamide]: the pEC50 under setting [2] is 7.40 to 8.00.
For the molecule `Cc1ccc2[nH]c3c(c2c1)CCCC3=O` [Compound 71, 6-Methyl-2,3,4,9-tetrahydro-carbazol-1-one], the pEC50 under setting [2] is 6.00 to 6.70.
Same read-out and setting: next, `NC1CCCc2c1[nH]c1cc(Br)ccc21` (centres unmarked) [Compound 94, 7-Bromo-2,3,4,9-tetrahydro-1H-carbazol-1-ylamine; compound with methane]: under 6.00; `O=S(=O)(NC1CCCc2c1[nH]c1ccc(Br)cc21)c1ccccc1` (centres unmarked) [Compound 46, N-(6-Bromo-2,3,4,9-tetrahydro-1H-carbazol-1-yl)-benzenesulfonamide]: 6.70 to 7.40.
Regarding `Clc1ccc2[nH]c3c(c2c1Cl)CCCC3n1cccc1` (centres unmarked) [Compound 48, 5,6-Dichloro-1-pyrrol-1-yl-2,3,4,9-tetrahydro-1H-carbazole], the pEC50 under setting [2] is 6.70 to 7.40.
For `OC(COc1ccc(C2CCCc3c2[nH]c2ccc(Cl)cc32)cc1)CN1CCOCC1` (centres unmarked) [Compound 215], the pEC50 under setting [1] was 7.40 to 8.00.
With `Brc1ccc2[nH]c3c(c2c1)CCCC3Nc1ccon1` (centres unmarked) [Compound 51, (6-Bromo-2,3,4,9-tetrahydro-1H-carbazol-1-yl)-isoxazol-3-yl-amine], under setting [2], the pEC50 is 6.70 to 7.40.
Still for that read-out and setting: next, `Brc1ccc2[nH]c3c(c2c1)CCCC3n1ccc(CN2CCOCC2)c1` (centres unmarked) [Compound 64, 6-Bromo-1-(3-morpholin-4-ylmethyl-pyrrol-1-yl)-2,3,4,9-tetrahydro-1H-carbazole]: 6.00 to 6.70; `CN(C(=O)c1cccc(Cl)c1)C1CCCc2c1[nH]c1ccc(Br)cc21` (centres unmarked) [Compound 66, N-(6-Bromo-2,3,4,9-tetrahydro-1H-carbazol-1-yl)-3-chloro-N-methyl-benzamide]: 6.00 to 6.70.
On the same count and under the same terms, next, `COc1ccc2[nH]c3c(c2c1)CCCC3N` (centres unmarked) [Compound 95, 6-Methoxy-2,3,9-tetrahydro-1H-carbazol-1-ylamine]: under 6.00.
As to `COCCN(C)CC(O)COc1ccc(C2CCCc3c2[nH]c2ccc(Cl)cc32)cc1` (centres unmarked) [Compound 218], the pEC50 under setting [1] is 7.40 to 8.00.
Turning to `Cc1cc(C(=O)NC2CCCc3c2[nH]c2ccc(Br)cc32)no1` (centres unmarked) [Compound 191], under setting [1], the pEC50 is over 8.00.
On to `Brc1ccc2[nH]c3c(c2c1)CCCC3c1ccc(OCCCN2CCOCC2)cc1` (centres unmarked) [Compound 210], for which the pEC50 under setting [1] was over 8.00.
With `COc1ccc(NC2CCCc3c2[nH]c2ccc(Br)cc32)cc1` (centres unmarked) [Compound 4, (6-Bromo-2,3,4,9-tetrahydro-1H-carbazol-1-yl)-(4-methoxy-phenyl)-amine], the pEC50 under setting [2] was over 8.00.
Consider `COC(=O)c1ccc2[nH]c3c(c2c1)CCCC3n1cccc1` (centres unmarked) [Compound 115, 8-Pyrrol-1-yl-6,7,8,9-tetrahydro-5H-carbazole-3-carboxylic acid methyl ester], for which the pEC50 under setting [2] was under 6.00.
Same read-out and setting: as for `Brc1ccc2[nH]c3c(c2c1)CCCC3Nc1ncccn1` (centres unmarked) [Compound 141, (6-Bromo-2,3,4,9-tetrahydro-1H-carbazol-1-yl)-pyrimidin-2-yl-amine], the figure is over 8.00.
On to `OCCNC1CCCc2c1[nH]c1ccc(Br)cc21` (centres unmarked) [Compound 168, 2-(6-Bromo-2,3,4,9-tetrahydro-1H carbazol-1-ylamino)-ethanol hydrochloride], for which the pEC50 by setting is: under setting [3], under 6.00; under setting [4], 5.11.
The corresponding values for `CCNC1CCCc2c1[nH]c1ccc(C)cc21` (centres unmarked) [Compound 185, Ethyl-(6-methyl-2,3,4,9-tetrahydro-1H-carbazol-1-yl)-amine] are under 6.00 and under 5.00.
As to `O=C(NC1CCCc2c1[nH]c1ccc(Br)cc21)c1ccc(-c2ccc(Cl)cc2)o1` (centres unmarked) [Compound 125, 5-(4-Chloro-phenyl)-furan-2-carboxylic acid (6-bromo-2,3,4,9-tetrahydro-1H-carbazol-1-yl)-amide], the pEC50 under setting [2] was 6.70 to 7.40.
With `O=C(O)c1ccc2[nH]c3c(c2c1)CCCC3n1cccc1` (centres unmarked) [Compound 120, 8-Pyrrol-1-yl-6,7,8,9-tetrahydro-5H-carbazole-3-carboxylic acid], under setting [2], the pEC50 was under 6.00.
Take `OC(COc1ccc(C2CCCc3c2[nH]c2ccc(Cl)cc32)cc1)Cn1ccnc1` (centres unmarked) [Compound 220]: the pEC50 under setting [1] is 7.40 to 8.00.
`COc1cccc(C(=O)NC2CCCc3c2[nH]c2ccc(Br)cc32)c1OC` (centres unmarked) [Compound 39, N-(6-Bromo-2,3,4,9-tetrahydro-1H-carbazol-1-yl)-2,3-dimethoxy-benzamide]: under setting [2], the pEC50 was 6.70 to 7.40.
For the molecule `O=C(NC1CCCc2c1[nH]c1ccc(Br)cc21)c1ccc(Cl)nc1` (centres unmarked) [Compound 52, N-(6-Bromo-2,3,4,9-tetrahydro-1H-carbazol-1-yl)-6-chloro-nicotinamide], the pEC50 under setting [2] was 6.70 to 7.40.
Turning to `O/N=C/c1ccn(C2CCCc3c2[nH]c2ccc(Br)cc32)c1` (centres unmarked) [Compound 149, 1-(6-Bromo-2,3,4,9-tetrahydro-1H-carbazol-1-yl)-1H-pyrrole-3-carbaldehyde oxime], the pEC50 under setting [2] was 6.70 to 7.40.
Consider `Brc1ccc2[nH]c3c(c2c1)CCCC3n1cc2ccsc2c1` (centres unmarked) [Compound 1, 6-Bromo-1-thieno[2,3-c]pyrrol-5-yl-2,3,4,9-tetrahydro-1H-carbazole], for which the pEC50 under setting [2] was over 8.00.
`OCCNC1CCCc2c1[nH]c1ccc(Br)cc21` (centres unmarked) [Compound 186, 2-(6-Bromo-2,3,4,9-tetrahydro-1H-carbazol-1-ylamino)-ethanol hydrochloride]: the pEC50 (purchased compounds 156-188, hypoxic conditions, hydrochloride, read-out: ELISA EC50) is 4.92 and the pEC50 (purchased compounds 156-188, hypoxic conditions, read-out: ELISA Activity) is under 6.00.
In the case of `Fc1ccccc1NC1CCCc2c1[nH]c1ccc(Br)cc21` (centres unmarked) [Compound 17, (6-Bromo-2,3,4,9-tetrahydro-1H-carbazol-1-yl)-(2-fluoro-phenyl)-amine], under setting [2], the pEC50 was over 8.00.
Regarding `Cc1ccc2c(c1)c1c3n2CCN(CC(C)O)C3CCC1` (centres unmarked) [Compound 176, 1-(8-Methyl-1,2,3a,4,5,6-hexahydro-pyrazino[3,2,1-jk]carbazoI-3-yl)-propan-2-ol], the pEC50 under setting [3] was under 6.00 and the pEC50 under setting [4] was under 5.00.
Regarding `O=C(NC1CCCc2c1[nH]c1ccc(Br)cc21)c1ccoc1` (centres unmarked) [Compound 152, Furan-3-carboxylic acid (6-bromo-2,3,4,9-tetrahydro-1H-carbazol-1-yl)-amide], the pEC50 under setting [2] was 6.00 to 6.70.
`Brc1ccc2[nH]c3c(c2c1)CCCC3c1ccc(OCCCn2ccnn2)cc1` (centres unmarked) [Compound 209]: the pEC50 under setting [1] is over 8.00.
Still for that read-out and setting: next, `OC(COc1ccc(C2CCCCc3c2[nH]c2ccc(Br)cc32)cc1)Cn1cncn1` (centres unmarked) [Compound 226]: 6.70 to 7.40.
For the molecule `Brc1ccc2[nH]c3c(c2c1)CCCCC3Nc1ccccc1` (centres unmarked) [Compound 33, (2-Bromo-5,6,7,8,9,10-hexahydro-cyclohepta[b]indol-6-yl)-phenyl-amine], under setting [2], the pEC50 is 7.40 to 8.00.
Regarding `Cc1ccc2[nH]c3c(c2c1)CCCC3NCCCO` (centres unmarked) [Compound 177, 3-(6-Methyl-2,3,4,9-tetrahydro-1H-carbazol-1-ylamino)-propan-1-ol], the pEC50 under setting [3] is under 6.00 and the pEC50 under setting [4] was under 5.00.
